The values that follow come from patent publication US8314071B2, “Bioactive molecules from co-cultivation of microbes” (Massachusetts Institute of Technology, priority 2007, dated 2012).

The subject of one data set is Saccharomyces cerevisiae. The data set is described as follows: paper disk diffusion, Saccharomyces cerevisiae. The format is cell-based. Particulars: paper disk (6 mm in diameter) containing 30 μg on agar plate. As for the experimental part:
(§1) No evidence of activity against eukaryotes, such as S. cerevisiae or cytotoxicity against human leukemia (HL-60) was observed.
(§2) Antimicrobial activity was measured by the conventional paper disk diffusion method. See Bauer, A. W.; Kirby, W. M.; Sherris, J. C.; Turck, M. Am. J. Clin. Pathol. 1966, 45, 493-96; and Hachem, C. Y.; Clarridge, J. E.; Reddy, R.; Flamm, R.; Evans, D. G.; Tanaka, S. K.; Graham, D. Y. Diagn. Microbiol. Infect. Dis. 1996, 24, 37-41. The bioactive fractions during the purification procedures were confirmed by activity against Streptomyces padanus, while pure rhodostreptomycins were tested for activity against S. padanus, Escherichia coli, Staphylococcus aureus, Bacillus subtilis, Helicobacter pylori and Saccharomyces cerevisiae. In this method, each paper disk (Whatman AA Discs, 6 mm) containing the extract or 30 μg of the pure compounds was placed directly onto an agar plate that had been freshly inoculated with a lawn of the test organism. The activity was estimated by measuring the diameters of the inhibition zones.
In general terms: A growth-free zone around the sample is the usual read-out of agar diffusion tests.

Another data set can be described thus: solubility in solvents. The format is physicochemical.
The next data set concerns Helicobacter pylori. Put plainly: paper disk diffusion, Helicobacter pylori. The format is cell-based. Particulars: paper disk (6 mm in diameter) containing 30 μg on agar plate. As for the experimental part: as §1, §2
A further data set deals with Staphylococcus aureus. The data set is described as follows: paper disk diffusion, Staphylococcus aureus. The following applies: paper disk (6 mm in diameter) containing 30 μg on agar plate. The format is cell-based. The protocol:
as §1, §2

The test system of a further data set is Escherichia coli. The data set is described as follows: paper disk diffusion, Escherichia coli. The format is cell-based. The following applies: paper disk (6 mm in diameter) containing 30 μg on agar plate. As for the experimental part: as §1, §2
The subject of a further data set is Streptomyces padanus. Put plainly: paper disk diffusion, Streptomyces padanus. The format is cell-based. The following applies: paper disk (6 mm in diameter) containing 30 μg on agar plate. The protocol: as §1, §2
Another data set concerns Bacillus subtilis. Put plainly: paper disk diffusion, Bacillus subtilis. The format is cell-based. Particulars: paper disk (6 mm in diameter) containing 30 μg on agar plate. The protocol:
as §1, §2

Data set [1] concerns Gram-negative and Gram-positive bacteria. The data set is described as follows: conventional disk assays on microbial lawns, overall. Particulars: rhodostreptomycin B (2) compared with rhodostreptomycin A (1). The format is cell-based. As for the experimental part:
as §1, §2

On to `CN[C@@H]1[C@H](O[C@H]2[C@H](O[C@H]3[C@H](O)[C@@H](O)[C@H](N=C(N)N)[C@@H](O)[C@@H]3N=C(N)N)O[C@H](C)[C@@]23OC(=O)N[C@H]3O)O[C@@H](CO)[C@H](O)[C@H]1O` [Rhodostreptomycin 1, Rhodostreptomycin A], for which the “diameter of inhibition zone” value in the data set with Saccharomyces cerevisiae came out at 0 mm; with Helicobacter pylori it was 10 mm; with Staphylococcus aureus it was 9 mm; in the data set with Escherichia coli, 8 mm; in the data set with Streptomyces padanus it was 15 mm; with Bacillus subtilis, 8 mm. The “solubility in chloroform or n-hexane” value in the data set “solubility in solvents” is reported as “not in chloroform or n-hexane”. For the same molecule, the solubility in water result in “solubility in solvents” was “highly soluble in water”.
Regarding `CN[C@@H]1[C@H](O[C@H]2[C@H](O[C@H]3[C@H](O)[C@@H](O)[C@H](N=C(N)N)[C@@H](O)[C@@H]3N=C(N)N)O[C@H](C)[C@@]23OC(=O)N[C@@H]3O)O[C@@H](CO)[C@H](O)[C@H]1O` [Rhodostreptomycin 2, Rhodostreptomycin B], the “activity relative to the other isomer” value in data set [1] is on record as “more potent”. Also, the “diameter of inhibition zone” value in the data set with Saccharomyces cerevisiae is recorded as 0 mm; in the data set with Helicobacter pylori, 18 mm; in the data set on Staphylococcus aureus, 14 mm; in the data set on Escherichia coli, 12 mm; in the data set with Streptomyces padanus, 18 mm; in the data set with Bacillus subtilis, 14 mm. In addition, the “solubility in chloroform or n-hexane” value in the data set “solubility in solvents” was “not in chloroform or n-hexane”. Besides, in “solubility in solvents”, the solubility in water result is listed as “highly soluble in water”.
